# Experimental data published in US4448962A, “Substituted quinoline carboxylic acid derivatives” (Kyorin Seiyaku Kabushiki Kaisha, priority 1978, dated 1984).
# Read-outs that look alike come from different tables or passages of the source.
# Experiments:
# Experiment in all cases: Antibacterial spectrum (Minimum Inhibitory Concentration)
# Type in all cases: cell-based
# [1] = tested on: Bacillus subtilis PCI 219
# Description: (§1) The antibacterial tests were done according to the method authorized by the Chemotherapeutic Society of Japan.
# E. coli ATCC 10536 = conditions: Escherichia coli, ATCC10536, read-out: Minimum Inhibitory Concentration
# Description: as §1
# [2] = tested on: Escherichia coli NIHJ JC-2; conditions: Escherichia coli, NIHJJC2, read-out: Minimum Inhibitory Concentration
# Description: as §1
# [3] = tested on: Klebsiella pneumoniae IFO 3512; conditions: Klebsiella pneumoniae, IFO3512, read-out: Minimum Inhibitory Concentration
# Description: as §1
# [4] = tested on: Mycobacterium smegmatis IFO 3083; conditions: Mycolicibacterium smegmatis
# Description: as §1
# Pr. vulgaris XK Denken = conditions: Proteus vulgaris, read-out: Minimum Inhibitory Concentration
# Description: as §1
# [5] = tested on: Proteus vulgaris IFO 3167
# Description: as §1
# Ps. aeruginosa IFO 12689 = conditions: Pseudomonas aeruginosa
# Description: as §1
# Ps. aeruginosa IID 1130 = conditions: Pseudomonas aeruginosa
# Description: as §1
# Ps. aeruginosa IID 1210 = conditions: Pseudomonas aeruginosa
# Description: as §1
# [6] = tested on: Pseudomonas aeruginosa V-1
# Description: as §1
# [7] = tested on: Salmonella enteritidies IID 604
# Description: as §1
# Shigella sonnei IID 969 = conditions: IID969; Shigella sonnei IID 969, Gram -
# Description: as §1
# Sta. aureus ATCC 14775 = conditions: Staphylococcus aureus
# Description: as §1
# [8] = tested on: Staphylococcus aureus 209P; conditions: read-out: Minimum Inhibitory Concentration
# Description: as §1
smiles,measurement,setting,value
"CCn1cc(C(=O)O)c(=O)c2ccc(C)nc21 [Nalidixic, nalidixic acid, reference compound]",MIC,"[1]; Bacillus subtilis, PCI219, read-out: Minimum Inhibitory Concentration",6.25 µg/mL
same,MIC,E. coli ATCC 10536,3.13 µg/mL
same,MIC,[2],3.13 µg/mL
same,MIC,[3],1.56 µg/mL
same,MIC,"[4]; IFO3083, read-out: Minimum Inhibitory Concentration",> 100 µg/mL
same,MIC,Pr. vulgaris XK Denken,3.13 µg/mL
same,MIC,"[5]; Proteus vulgaris, IFO3167, read-out: Minimum Inhibitory Concentration",3.13 µg/mL
same,MIC,"Ps. aeruginosa IFO 12689; IFO12689, read-out: Minimum Inhibitory Concentration",> 200 µg/mL
same,MIC,"Ps. aeruginosa IID 1130; IID1130, read-out: Minimum Inhibitory Concentration",> 200 µg/mL
same,MIC,"Ps. aeruginosa IID 1210; IID1210, read-out: Minimum Inhibitory Concentration",> 200 µg/mL
same,MIC,"[6]; Pseudomonas aeruginosa, V1, read-out: Minimum Inhibitory Concentration",100 µg/mL
same,MIC,"[7]; Salmonella, IID604, read-out: Minimum Inhibitory Concentration",12.5 µg/mL
same,MIC,Shigella sonnei IID 969,1.56 µg/mL
same,MIC,"Sta. aureus ATCC 14775; ATCC14775, read-out: Minimum Inhibitory Concentration",> 100 µg/mL
same,MIC,"[8]; Staphylococcus aureus, 209P",100 µg/mL
"CCn1cc(C(=O)O)c(=O)c2cnc(N3CCNCC3)nc21 [Pipemidic acid, reference compound]",MIC,"[1]; PCI219, Bacillus subtilis PCI 219, Gram +, read-out: Minimum Inhibitory Concentration",6.25 µg/mL
same,MIC,E. coli ATCC 10536,1.56 µg/mL
same,MIC,[2],1.56 µg/mL
same,MIC,[3],1.56 µg/mL
same,MIC,"[4]; IFO3083, Mycobacterium smegmatis IFO 3083, Gram +, read-out: Minimum Inhibitory Concentration",50 µg/mL
same,MIC,"Pr. vulgaris XK Denken; Pr. vulgaris XK Denken, Gram -",6.25 µg/mL
same,MIC,"[5]; IFO3167, Proteus vulgaris IFO 3167, Gram -, read-out: Minimum Inhibitory Concentration",3.13 µg/mL
same,MIC,"Ps. aeruginosa IFO 12689; IFO12689, Ps. aeruginosa IFO 12689, Gram -, read-out: Minimum Inhibitory Concentration",25 µg/mL
same,MIC,"Ps. aeruginosa IID 1130; IID1130, Ps. aeruginosa IID 1130, Gram -, read-out: Minimum Inhibitory Concentration",25 µg/mL
same,MIC,"Ps. aeruginosa IID 1210; IID1210, Ps. aeruginosa IID 1210, Gram -, read-out: Minimum Inhibitory Concentration",50 µg/mL
same,MIC,"[6]; V1, Pseudomonas aeruginosa V-1, Gram -, read-out: Minimum Inhibitory Concentration",12.5 µg/mL
same,MIC,"[7]; IID604, Salmonella enteritidies IID 604, Gram -, read-out: Minimum Inhibitory Concentration",12.5 µg/mL
same,MIC,Shigella sonnei IID 969,1.56 µg/mL
same,MIC,"Sta. aureus ATCC 14775; ATCC14775, Sta. aureus ATCC 14775, Gram +, read-out: Minimum Inhibitory Concentration",100 µg/mL
same,MIC,"[8]; Staphylococcus aureus 209P, Gram +",25 µg/mL
